# Assay results taken from US20110159095A1, “TREATMENT OF ADRENAL INSUFFICIENCY” (priority 2008, published 2011).
# Tested on: HPA axis
# Assay: Plasma ACTH in dexamethasone-suppressed healthy subjects
# Assay type: in vivo, human
# Conditions: 1 mg oral dexamethasone repeated; confirms suppression of HPA axis
# Method: Plasma ACTH levels were taken at 2155 h on Day 1 and on 0600 h on Day 2 whilst serum cortisol levels were taken prior to ingestion of the drug and were repeated every 30 minutes for the first four hours, then at 0200 h, 0300 h, 0400 h, 0500 h, 0600 h, 0800 h, 1000 h, 1300 h, 1600 h, 2200 h.
# Assays: Serum cortisol was measured using the Bayer Advia Centaur Automated Immunoassay System. The inter-assay coefficient variation was 7% at 200 nmol/l (7.2 μg/dl), and 8% at 1,050 nmol/l (38 μg/dl). Plasma ACTH was measured using the DPC Immulite 2000 assay. Plasma 17OH-progesterone was measured using Liquid Chromatography Tandem Mass Spectrometry at Quest Diagnostics (Nichols Institute, San Juan Capistrano, Calif., USA) with an inter-assay coefficient of variation of 8.2%.
smiles,measurement,value
C[C@@H]1C[C@H]2[C@@H]3CCC4=CC(=O)C=C[C@]4(C)[C@@]3(F)[C@@H](O)C[C@]2(C)[C@@]1(O)C(=O)CO [dexamethasone],ACTH values below the assay lower limit,98%
